Source: patent publication US20180116972A1, “Lipid based nanocarrier compositions loaded with metal nanoparticles and therapeutic agent” (UNIVERSITE DE BORDEAUX, priority 2015, published 2018)
“Also recorded” adds a separate entry of the source.

What was measured:
[1] = Size distribution measured by Dynamic Light Scattering (DLS); format: physicochemical
[2] = Stability of a suspension of iron oxide nanoparticles clusters encapsulated by a lipid (DOPC) versus a nucleolipid (DOTAU); details: Milli-Q water, sonicated 3×15 minutes
Experimental: 75 μL of stock solution of (DOPC) (Avanti Polar ipids, 50 mg/mL in chloroform) and 20 μL of stock solution of iron oxide nanoparticles (10 mg/mL in chloroform) were mixed. The organic phase was added dropwise into the aqueous phase (2 ml of Milli-Q Water) placed in glass tube under stirring by vortex. Then the mixture was placed in a glass flask. Chloroform was removed under vacuum and the resulting crude material solution was sonicated 3 times (3×15 minutes) to give a precipitate.
The same protocol was followed, except that the nucleolipid N-[5′-(2′,3′-dioleoyl)uridine]-N′,N′,N′-trimethylammonium (DOTAU) was used instead of DOPC.

[3] = system: Platelet rich plasma (PRP); assay: In vitro platelet aggregation (light transmission aggregometer); format: cell-based, healthy volunteers; details: 37° C.
Experimental: Blood was obtained in 1/10th volume of 3.8% sodium citrate from healthy volunteers who had not taken any drugs known to affect platelet function for 2 weeks prior to the study. Platelet rich plasma (PRP) was prepared by centrifugation at 20° C. for 10-15 min at 150-200 g and stored at room temperature.
Platelet-poor plasma (PPP) was prepared by further centrifugation of the remaining plasma at 2700 g for 15 min and was used to calibrate the 100% light transmission of the aggregometer.
The percentage of aggregation was followed versus time. PRP (207 μL) was stirred in cuvette at 37° C. and agonists adenosine 5′-diphosphate (ADP) or thrombin receptor-activating peptide -6 (TRAP-6) were added at 5 s to promote platelet aggregation, and was incubated either with the DOU-PEG2000-based nanocarrier composition containing iron oxide nanoparticles and prostacyclin (PGI2) of example 2, or with the iron oxide nanoparticles clusters encapsulated by diC16dT of preparation 2 (used as negative control) or with the agonist(s) only (negative control) or with the agonist(s) and PGI2 (positive control) for 15 min and 3 h for evaluating PGI2 activity. The in vitro platelet aggregation was determined using a four-channel light transmission aggregometer (APACT 4004, ELITech, France).
The results are shown on FIG. 12, where the curves numbered 1 to 7 represent the following experimental conditions: […]

For “APOA1: Apolipoprotein-A1 (Sigma Aldrich)”, the “size distribution by number measured by DLS (d)” value [1] was 5.01 nm.

For `CCCCCCCC/C=C\CCCCCCCC(=O)O[C@@H]1[C@H](OC(=O)CCCCCCC/C=C\CCCCCCCC)[C@@H](C[N+](C)(C)C)O[C@H]1n1ccc(=O)[nH]c1=O` [DOTAU, N-[5′-(2′,3′-dioleoyl)uridine]-N′,N′,N′-trimethylammonium], the “colloidal stability of the iron oxide nanoparticle suspension after sonication” value [2] was “did not give a precipitate; also recorded: stable colloïdal suspension”.

For `CCCCC[C@H](O)/C=C/[C@@H]1[C@H]2C/C(=C/CCCC(=O)O)O[C@H]2C[C@H]1O` [PGI2, prostacyclin], the “platelet aggregation induced by ADP” value ([3]; agonist ADP, 15 min incubation) was “totally inhibit” and the “platelet aggregation induced by TRAP-6” value ([3]; agonist TRAP-6, 3 h incubation) was “totally inhibit”.
